Source: ChEMBL document CHEMBL1201862, “PubChem BioAssay data set” (2004)
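These data come from cells grown in 96-well plates and exposed to compound for 48 hours at five concentrations. GI50 is the concentration that inhibits growth by half.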 Calls of active or inactive are those of the source. Cut-off read from the data, not from the text of the source: active = GI50 up to about 1.1 µM and inactive = higher.

Columns and labels:
Assay in all cases: inhibition of tumour cell growth, NCI panel, 48 h
RXF 393 = tested on: RXF 393
SNB-75 = tested on: SNB-75
M14 = tested on: M14
UACC-62 = tested on: UACC-62
UO-31 = tested on: UO-31
OVCAR-3 = tested on: OVCAR-3
NCI-H23 = tested on: NCI-H23
MDA-N = tested on: MDA-N
ACHN = tested on: ACHN
Malme-3M = tested on: Malme-3M
COLO 205 = tested on: COLO 205
UACC-257 = tested on: UACC-257
SR = tested on: SR
A549 = tested on: A549
IGROV-1 = tested on: IGROV-1
SK-MEL-28 = tested on: SK-MEL-28
SW-620 = tested on: SW-620
SF-268 = tested on: SF-268
Hs-578T = tested on: Hs-578T
CCRF-CEM = tested on: CCRF-CEM

Measured: GI50

OCC1CCCC(n2cnc3c(S)ncnc32)O1 (stereo unspecified)
inactive: RXF 393 > 100 µM | SNB-75 > 100 µM | M14 > 100 µM | UACC-62 > 100 µM | UO-31 > 100 µM | OVCAR-3 > 100 µM | NCI-H23 > 100 µM | MDA-N > 100 µM | ACHN > 100 µM | Malme-3M > 100 µM | COLO 205 > 100 µM | UACC-257 > 100 µM | SR > 100 µM | A549 > 100 µM | IGROV-1 > 100 µM | SK-MEL-28 > 100 µM | SW-620 > 100 µM | SF-268 > 100 µM | Hs-578T > 100 µM

COc1ccccc1N/C(=C\C(=O)C(=O)NC12CC3CC(CC(C3)C1)C2)c1ccccc1
inactive: RXF 393 > 10 µM | SNB-75 > 10 µM | CCRF-CEM > 10 µM | M14 > 10 µM | UO-31 7.73 µM | OVCAR-3 5.31 µM | NCI-H23 > 10 µM | MDA-N > 10 µM | ACHN > 10 µM | Malme-3M 3.36 µM | COLO 205 > 10 µM | UACC-257 9.46 µM | SR > 10 µM | IGROV-1 > 10 µM | SK-MEL-28 > 10 µM | SW-620 > 10 µM | SF-268 > 10 µM | Hs-578T > 10 µM

NC(=O)CC[C@H]1C(=O)N=C(N)N1C(=O)OCc1ccccc1
inactive: RXF 393 > 100 µM | SNB-75 > 100 µM | UACC-62 > 100 µM | UO-31 > 100 µM | OVCAR-3 > 100 µM | NCI-H23 > 100 µM | MDA-N > 100 µM | ACHN > 100 µM | Malme-3M > 100 µM | COLO 205 > 100 µM | UACC-257 > 100 µM | SR > 100 µM | IGROV-1 > 100 µM | SK-MEL-28 > 100 µM | SW-620 > 100 µM | SF-268 > 100 µM | Hs-578T > 100 µM

CCOC(=O)C1CCC(=O)N1C(=O)c1ccc(Cl)cc1 (stereo unspecified)
inactive: RXF 393 > 100 µM | SNB-75 > 100 µM | CCRF-CEM > 100 µM | M14 > 100 µM | UACC-62 22.3 µM | UO-31 > 100 µM | OVCAR-3 > 100 µM | NCI-H23 > 100 µM | MDA-N > 100 µM | ACHN > 100 µM | Malme-3M > 100 µM | UACC-257 > 100 µM | SR > 100 µM | A549 > 100 µM | IGROV-1 > 100 µM | SK-MEL-28 > 100 µM | SW-620 > 100 µM | SF-268 > 100 µM | Hs-578T > 100 µM

CC(C)=CC1C(C(=O)Oc2ccccc2C(C)C)C1(C)C (stereo unspecified)
inactive: RXF 393 16.9 µM | SNB-75 21.3 µM | CCRF-CEM 22.8 µM | M14 31.6 µM | UACC-62 36.7 µM | UO-31 17.7 µM | OVCAR-3 17.8 µM | NCI-H23 23.8 µM | MDA-N 26.4 µM | ACHN 18.4 µM | Malme-3M 16.3 µM | UACC-257 19.5 µM | SR 20.9 µM | A549 31.1 µM | IGROV-1 29.8 µM | SK-MEL-28 39.1 µM | SW-620 24.3 µM | SF-268 35.5 µM | Hs-578T 39.9 µM

c1ccc(/C(=N/Nc2cnccn2)c2ncccn2)cc1
inactive: RXF 393 > 100 µM | SNB-75 13.7 µM | CCRF-CEM 28 µM | M14 78.2 µM | UACC-62 88.3 µM | UO-31 29 µM | OVCAR-3 30.8 µM | NCI-H23 > 100 µM | MDA-N > 100 µM | ACHN 40.7 µM | COLO 205 32.1 µM | UACC-257 > 100 µM | SR 12.9 µM | A549 > 100 µM | IGROV-1 23.7 µM | SK-MEL-28 > 100 µM | SW-620 41.1 µM | SF-268 22.5 µM | Hs-578T 23.1 µM
